Test results as given in US12472214B2, “Bacterial strains, the compositions thereof and use thereof in a method for the treatment of vitamin D deficiency, and disorders associated therewith” (priority 2020, dated 2025).

Columns and labels:
[1] = In vivo murine study: 25(OH)D in serum by ELISA (bioavailability of vitamin D); set-up: species or system mice (Cd1); settings: mice; one-week daily administration (groups 3, 5, 6)
Experimental: Mice (8-week old adult male Cd1) were enclosure-adapted and fed on a conventional diet. Mice were housed in cages and kept in a temperature-controlled environment (22±2° C.) with a 12-hour light/dark cycle with food for regular chow and tap water supplied ad libitum. After one week of acclimatisation, the animals were then randomly divided into 6 experimental groups of 6 mice each and each group was randomly assigned to one of the scheduled treatments (Table 1).
The strain Lactobacillus paracasei DG® CNCM I-1572 (in short, L paracasei DG®) was sub-cultured in MRS agar and a single colony was inoculated into culture broth and incubated for 18 hours at 37° C. under microaerophilic conditions. […] The optical density (OD 600 nm) was then measured and the suspension was diluted to OD=1.00. […] The decimal count of aliquots on selective medium allowed to quantify the live cell concentration equal to 1.6×10^9 CFU/ml of suspension (2.4×10^8 CFU/aliquot). […]
Mice were sacrificed 3 hours after the end of administration following fluorane anaesthesia and subsequent collection of blood by means of cardiac puncture and removal of the terminal ileum. […] The terminal ileum was first washed with PBS and then subjected to the collection of mucosa and the subsequent freezing in liquid nitrogen. mRNA was then extracted for the quantification of the expression of the vitamin D receptor at mucosal level. […]

[2] = test system: vitamin D receptor VDR; assay: In vivo murine study: quantification of vitamin D receptor mRNA in ileal mucosa (quantitative PCR); set-up: species or system mice (Cd1); settings: mice
Experimental: Mice were sacrificed 3 hours after the end of administration following fluorane anaesthesia and subsequent collection of blood by means of cardiac puncture and removal of the terminal ileum. The blood was centrifuged for the separation of serum which was then frozen until the subsequent dose of vitamin D3, in the form of 25-hydroxy-vitamin D (abbreviated as […] 25(OH)D). The terminal ileum was first washed with PBS and then subjected to the collection of mucosa and the subsequent freezing in liquid nitrogen. mRNA was then extracted for the quantification of the expression of the vitamin D receptor at mucosal level.
The terminal ileum was first washed with PBS and then subjected to the collection of mucosa and the subsequent freezing in liquid nitrogen. mRNA was then extracted for the quantification of the expression of the vitamin D receptor at mucosal level. From an operational point of view, total RNA extraction from the mucosa was performed first, then a 30 ng aliquot of total RNA was reverse transcribed to cDNA and then subjected to a quantitative PCR with primers for the vitamin D receptor VDR (described by Wu et al. 2010). Below is the summary of the sequence of primers: […]
RT-PCR analyses were also conducted using an “absolute” negative control and a housekeeping gene to normalise the results obtained (e.g. β-actin).

Compound: C=C1CC[C@H](O)C/C1=C/C=C1\CCC[C@]2(C)[C@@H]([C@H](C)CCCC(C)C)CC[C@@H]12 [vitamin D3, cholecalciferol]
- change in serum levels of 25(OH)D versus treatment-free control group (statistical significance) [1]: did not generate any statistically significant change
- vitamin D receptor mRNA expression level in ileal mucosa versus treatment-free control ([2]; one-week daily administration (groups 3, 5, 6)): even more marked decrease
- vitamin D receptor mRNA expression level in ileal mucosa versus treatment-free control ([2]; vitamin D3 single dose (groups 2 and 4)): statistically significant decrease
